Measured values from ChEMBL document CHEMBL1136654, “1H-Pyrazolo[3,4-b]pyridine inhibitors of cyclin-dependent kinases” (Bioorg Med Chem Lett, 2003).

Assays:
[1] = target: Cyclin-dependent kinase 2/cyclin E (Homo sapiens, UniProt P24941); assay: In vitro inhibition of human CDK2/cyclin E.; type: protein-complex assay
[2] = target: Cyclin-dependent kinase 1/cyclin B (Homo sapiens, UniProt P06493); assay: Inhibitory concentration against CDK1/cyclin B was determined; type: protein-complex assay
[3] = target: Cyclin-dependent kinase 7/ cyclin H (Homo sapiens, UniProt P50613); assay: Inhibition of CDK7/cyclin H; type: protein-complex assay
[4] = target: Cyclin-dependent kinase 4/cyclin D (Homo sapiens, UniProt P11802); assay: Inhibition of CDK4/cyclin D was determined; type: protein-complex assay
Protein kinase C (PKC) = assay: Inhibition of PKC; type: protein assay
[5] = target: cAMP-dependent protein kinase (PKA) (Homo sapiens, UniProt P22694+P17612+P22612); assay: Inhibition of PKA; type: protein assay
[6] = target: Tyrosine-protein kinase Lck (Homo sapiens, UniProt P06239); assay: Inhibition of LCK
A2780 = assay: Cytotoxic effect in ovarian cancer cell line (A2780); type: functional, cell-based; settings: Homo sapiens

Chain of Tyrosine-protein kinase Lck (P06239 whole entry): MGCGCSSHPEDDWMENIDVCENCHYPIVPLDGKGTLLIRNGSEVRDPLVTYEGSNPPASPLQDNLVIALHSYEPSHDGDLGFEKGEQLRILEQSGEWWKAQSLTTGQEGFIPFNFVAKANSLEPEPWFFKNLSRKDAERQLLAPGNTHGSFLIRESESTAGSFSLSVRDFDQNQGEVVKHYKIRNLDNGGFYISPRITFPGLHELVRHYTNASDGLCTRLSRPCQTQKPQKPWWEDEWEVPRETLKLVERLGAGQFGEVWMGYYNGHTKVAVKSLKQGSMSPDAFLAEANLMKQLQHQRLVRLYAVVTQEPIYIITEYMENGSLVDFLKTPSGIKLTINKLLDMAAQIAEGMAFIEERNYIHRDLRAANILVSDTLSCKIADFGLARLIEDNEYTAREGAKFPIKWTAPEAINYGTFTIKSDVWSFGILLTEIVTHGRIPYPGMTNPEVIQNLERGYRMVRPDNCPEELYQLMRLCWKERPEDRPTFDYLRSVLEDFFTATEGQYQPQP
Chain of Cyclin-dependent kinase 7/ cyclin H (P51946 whole entry): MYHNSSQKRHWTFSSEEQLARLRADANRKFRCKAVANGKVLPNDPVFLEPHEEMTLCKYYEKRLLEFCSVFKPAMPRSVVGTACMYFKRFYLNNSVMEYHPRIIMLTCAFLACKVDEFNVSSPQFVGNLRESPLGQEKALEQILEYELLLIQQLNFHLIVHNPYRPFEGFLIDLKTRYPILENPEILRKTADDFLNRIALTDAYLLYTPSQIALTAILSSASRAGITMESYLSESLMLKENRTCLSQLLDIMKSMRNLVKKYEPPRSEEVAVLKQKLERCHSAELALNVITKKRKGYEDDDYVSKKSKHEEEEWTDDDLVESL
Chain of Cyclin-dependent kinase 7/ cyclin H (P50613 whole entry): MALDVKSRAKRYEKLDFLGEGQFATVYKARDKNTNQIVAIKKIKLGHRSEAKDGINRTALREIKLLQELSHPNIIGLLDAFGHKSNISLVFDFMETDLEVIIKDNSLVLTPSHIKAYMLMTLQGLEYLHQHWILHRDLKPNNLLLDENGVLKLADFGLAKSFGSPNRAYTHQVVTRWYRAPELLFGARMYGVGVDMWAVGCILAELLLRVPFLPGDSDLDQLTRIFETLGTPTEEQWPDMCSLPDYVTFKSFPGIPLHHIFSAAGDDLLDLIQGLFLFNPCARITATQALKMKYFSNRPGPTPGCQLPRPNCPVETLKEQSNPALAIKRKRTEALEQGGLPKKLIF

Row | IC50 [1] [nM] | IC50 [2] [nM] | Structure (SMILES) | other results
1 | > 25000 | – | CCCCN(C)c1c(C(=O)c2ccccc2)cnc2[nH]ncc12 | –
2 | > 25000 | – | C=C(c1ccccc1)c1c[nH]c2nncc-2c1OCCCC | –
3 | > 25000 | – | CCCCOc1c2cnnc-2[nH]cc1C(O)c1ccccc1 (stereo not given) | –
4 | 4400 | – | CCCCSc1c(C(=O)c2ccccc2)cnc2[nH]ncc12 | –
5 | > 25000 | – | CCCCOc1c(Cc2ccccc2)c[nH]c2nncc1-2 | –
6 | 240 | 310 | CCCCCOc1c(C(=O)c2ccccc2)cnc2[nH]ncc12 | –
7 | 15000 | – | O=C(c1ccccc1)c1cnc2[nH]ncc2c1Oc1ccccc1 | –

The next lines start with the molecule.

Row | Structure (SMILES) | IC50 [1] [nM] | IC50 [2] [nM] | other results
8 | CCCC(C)Oc1c(C(=O)c2ccccc2)cnc2[nH]ncc12 (stereo not given) | 520 | 310 | –
9 | O=C(c1ccccc1)c1cnc2[nH]ncc2c1OCc1ccccc1 | 280 | 350 | –
10 | O=C(c1ccccc1)c1cnc2[nH]ncc2c1OCCO | 3700 | – | –
11 | CCn1ncc2c(OCCC(C)C)c(C(=O)c3ccccc3)cnc21 | > 25000 | – | –
12 | CN(C)CCOc1c(C(=O)c2ccccc2)cnc2[nH]ncc12 | 17000 | – | –
13 | CC(C)CCOc1c(C(=O)c2ccccc2)c[nH]c2nncc1-2 | 180 | 240 | IC50 [3]: 1100 nM; IC50 [4]: > 25000 nM; IC50 (Protein kinase C (PKC)): > 50000 nM; IC50 [5]: > 50000 nM; IC50 [6]: > 50000 nM
14 | O=C(c1ccccc1)c1cnc2[nH]ncc2c1OC1CCCCC1 | 660 | 600 | –
15 | CCCOc1c(C(=O)c2ccccc2)cnc2[nH]ncc12 | 180 | 220 | –
16 | CCCCOc1c(C(=O)c2ccccc2)cnc2[nH]ncc12 [SQ-67563] | 110 | 150 | IC50 (A2780): 5800 nM; IC50 [4]: > 25000 nM
